Experimental findings from patent publication US12606533B2, “3-phenylpropylamine derivative” (DAIICHI SANKYO COMPANY, LIMITED, priority 2023, dated 2026) are described below.

SMILES strings stand for the structures. pIC50: −log10 of the molar value.

The target in test [1] is SF1-LBD (Homo sapiens, UniProt Q13285). Nature of the test: Inhibitory activity against binding of DAX1 to SF1-LBD (AlphaLISA). The conditions noted are these: inhibition of binding of DAX1 peptide to His-SF1-LBD, read-out: cell-free SF1 IC50. The procedure: The binding activity of each compound to the SF-1 ligand binding domain (LBD) was evaluated using the binding inhibitory activity of each compound against binding of DAX1 to SF1-LBD as an index. 100 nM His-SF1-LBD, 2 nM Biotin-DAX1 peptide (Biotin-[…]-NH2) and each compound (8-point i1 dilution series with common ratio 2 from final concentration 2 μM) were mixed in assay buffer [25 mM HEPES (pH 7.5), 100 mM NaCl, 0.1% BSA, 0.01% CHAPS, 1 mM DTT] and reacted at room temperature for 30 min. Anti-6×His AlphaLISA Acceptor beads and Streptavidin-coated AlphaScreen Donor beads were mixed to a final concentrations of 5 μg/ml and 10 μg/ml, respectively, and reacted in the dark at room temperature for 60 min. AlphaLISA signals were detected using a multimode plate reader (EnVision Xcite, PerkinElmer). The binding rate of DAX1 peptide to SF1 was calculated from the luminescence amount (C) of the compound-free group and the luminescence amount (T) of the compound-added group, based on the following formula.
The DAX1 peptide binding rate at each concentration was analyzed using GraphPad Prism6 (GraphPad Software Inc.) to calculate the concentration (IC50 value) of each compound that inhibits 50% of the binding of DAX1 to SF1-LBD.

For test [2], the system named is CYP11A1. Put plainly: Changes in SF1 target gene expression for NCI-H295R: CYP11A1 mRNA (qPCR). The format is cell-based. The following applies: Homo sapiens, NCI-H295R cells, 24 hr. The procedure:
(§1) NCI-H295R cells were cultured in a 5% CO2 incubator at 37° C. using DMEM/F12 medium (Thermo Fisher Scientific Inc.) containing 2.5% Nu-Serum (registered trademark) Growth Medium Supplement (Corning) and 1% Corning ITS+ Premix Universal Culture Supplement (Corning). The DMSO solution of each compound was serially diluted with DMSO using a D300e Digital Dispenser (TECAN), and the compounds were added to a 96-well plate (FALCON). NCI-H295R cells were seeded at 1×10^4 cells/50 μL/well on the 96-well plate containing the compounds added thereto, and cultured for 24 hr in a 5% CO2 incubator at 37° C. The final DMSO concentration in the medium was adjusted to 0.1% (v/v) in all cases, and the concentration range of the compounds was set to 1000 nM to 0.32 nM with a common ratio […]. After the completion of culture, the medium was discarded, 50 μL/well of chilled D-PBS (Sigma Aldrich) was added to wash the cells, and D-PBS was discarded. After washing, 25 μL/well of Cells-to-CT (registered trademark) Bulk Lysis Reagents (Thermo Fisher Scientific, Inc.) was added to the wells, the mixture was stirred for 5 min with a plate mixer, and 2.5 μL/well of the reaction quenching liquid was added to prepare cell lysate. The cell lysate was dispensed into a 96-well plate (Corning) at 10 μL/well, and 40 μL/well of Cells-to-CT Bulk RT Reagents (Thermo Fisher Scientific, Inc.) was added. A reverse transcription reaction was performed at 37° C. for 50 min using a thermal cycler, and the reverse transcriptase was inactivated by heating at 95° C. for 5 min, and then stored at 10° C. PrimeTime (registered trademark) Gene Expression Master Mix (Integrated DNA Technologies), the target genes CYP11A1, CYP17A1, CYP21A2, or STAR, and the control gene ACTB PrimeTime (registered trademark) qPCR Probe Assays (Integrated DNA Technologies), and Nuclease free water were mixed at a ratio of 20:1:1:10 to prepare a PrimerProbe mix. The prepared PrimerProbe mix was added to a 384-well plate at 8 μL/well, and the cDNA obtained by reverse transcription was added at 2 μL/well. Real-Time PCR was performed under fast cycling conditions (95° C. for 3 min, followed by 40 cycles of 95° C. for 5 seconds and 62° C. for 30 seconds) to measure the fluorescent signal. The obtained data was analyzed using GraphPad Prism9 (GraphPad Software Inc.) to calculate the concentration (IC50 value) that reduces the mRNA expression level by 50%. The IC50 values (unit: nM) for CYP11A1, CYP17A1, CYP21A2, and STAR, of the compounds corresponding to each Example number are shown in Table 94.

For test [3], the system named is CYP17A1. Nature of the test: Changes in SF1 target gene expression for NCI-H295R: CYP17A1 mRNA (qPCR). The format is cell-based. The conditions noted are these: Homo sapiens, NCI-H295R cells, 24 hr. The procedure: as §1
In test [4] the test system is CYP21A2. Put plainly: Changes in SF1 target gene expression for NCI-H295R: CYP21A2 mRNA (qPCR). The format is cell-based. The following applies: Homo sapiens, NCI-H295R cells, 24 hr. The procedure:
as §1

Test [5] concerns STAR. Put plainly: Changes in SF1 target gene expression for NCI-H295R: STAR mRNA (qPCR). The format is cell-based. The conditions noted are these: Homo sapiens, NCI-H295R cells, 24 hr. The procedure: as §1

Chain of SF1-LBD (Q13285 222-459 limits assumed): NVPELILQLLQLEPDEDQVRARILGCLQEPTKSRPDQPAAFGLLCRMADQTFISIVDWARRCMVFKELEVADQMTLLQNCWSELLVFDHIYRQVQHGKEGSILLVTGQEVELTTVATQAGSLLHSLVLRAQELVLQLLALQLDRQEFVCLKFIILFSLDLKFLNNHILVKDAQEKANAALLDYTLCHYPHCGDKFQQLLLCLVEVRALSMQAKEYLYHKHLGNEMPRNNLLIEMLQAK

Turning to `COc1ccc([C@]2(CCN(Cc3ccc(O[C@H]4CC[C@H](C(=O)O)CC4)cc3)CC(C)(C)C(F)(F)F)CCOC(C)(C)C2)cc1` [Example M5, Trans-4-(4-{[{2-[(4R)-4-(4-methoxyphenyl)-2,2-dimethyltetrahydro-2H-pyran-4-yl]ethyl)(3,3,3-trifluoro-2,2-dimethylpropyl)amino]methyl}phenoxy)cyclohexanecarboxylic acid], the pIC50 in test [1] is 7.74; in test [2], 8.55; in test [3], 7.89; in test [4], 8.37; in test [5], 8.41.

With `COc1ccc(C2(CCN(Cc3ccc(O[C@H]4CC[C@H](C(=O)O)CC4)cc3)c3ccccn3)CCOC(C)(C)C2)cc1` (stereo partly drawn) [Example I2, trans-4-(4-{[{2-[4-(4-Methoxyphenyl)-2,2-dimethyltetrahydro-2H-pyran-4-yl]ethyl}(pyridin-2-yl)amino]methyl}phenoxy)cyclohexanecarboxylic acid], the negative logarithm of the IC50 (pIC50) in test [1] was 7.33; in test [2], 7.54; in test [3], 6.93; in test [4] it was 7.28; in test [5] it was 7.26.

Take `COc1ccc(C2(CCN(Cc3ccc(Oc4ccc(N=S(C)(C)=O)cc4)cc3)C(=O)C(C)(C)C)CCOC(C)(C)C2)cc1` (centres unmarked) [Example N2]: the negative logarithm of the IC50 (pIC50) in test [1] is 7.39; in test [2] it was 7.72; in test [3] it was 6.95; in test [4], 7.52; in test [5], 7.41.

For the molecule `CC(C)Oc1ccc(C2(CCN(Cc3ccc(O[C@H]4CC[C@H](C(=O)O)CC4)cc3)C(=O)C(C)(C)C)CCOC(C)(C)C2)cc1` (stereo partly drawn) [Example F4, Trans-4-(4-{[(2,2-dimethylpropanoyl) (2-{2,2-dimethyl-4-[4-(propan-2-yloxy)phenyl]tetrahydro-2H-pyran-4-yl}ethyl)amino]methyl}phenoxy)cyclohexanecarboxylic acid], the pIC50 in test [1] was 7.51; in test [2] it was 7.85; in test [3] it was 6.78; in test [4], 7.64; in test [5], 7.16.

Regarding `COc1ccc([C@]2(CCN(Cc3ccc(O[C@H]4CC[C@H](CC(=O)O)CC4)nc3)CC(C)(C)C(F)(F)F)CCOC(C)(C)C2)cc1` [Example S4, {Trans-4-[(5-{[{2-[(4R)-4-(4-methoxyphenyl)-2,2-dimethyltetrahydro-2H-pyran-4-yl]ethyl}(3,3,3-trifluoro-2,2-dimethylpropyl)amino]methyl}pyridin-2-yl)oxy]cyclohexyl)acetic acid], the negative logarithm of the IC50 (pIC50) was 7.66 in test [1]; 8.92 in test [2]; 7.92 in test [3]; 8.66 in test [4]; 8.49 in test [5].

As to `CC1(C)CC(CCN(Cc2ccc(O[C@H]3CC[C@H](C(=O)O)CC3)cc2)C(=O)C(C)(C)C)(c2ccc(Cl)cc2)CCO1` (stereo partly drawn) [Example A6, Trans-4-(4-{[{2-[4-(4-chlorophenyl)-2,2-dimethyltetrahydro-2H-pyran-4-yl]ethyl)(2,2-dimethylpropanoyl)amino]methyl}phenoxy)cyclohexanecarboxylic acid], the pIC50 in test [1] was 7.72; in test [2] it was 6.99; in test [3], 6.55; in test [4], 6.85; in test [5] it was 6.80.

Consider `COc1ccc(C2(CCN(CCC(F)(F)F)Cc3ccc(O[C@H]4CC[C@H](CC(=O)O)CC4)cc3)CCOC(C)(C)C2)cc1` (stereo partly drawn) [Example K5, [Trans-4-(4-{[{2-[4-(4-methoxyphenyl)-2,2-dimethyltetrahydro-2H-pyran-4-yl]ethyl}(3,3,3-trifluoropropyl)amino]methyl}phenoxy)cyclohexyl]acetic acid], for which the pIC50 in test [1] was 7.54; in test [2] it was 7.92; in test [3], 6.85; in test [4] it was 7.55; in test [5], 7.33.

In the case of `CC1(C)CC(CCN(Cc2ccc(O[C@H]3CC[C@H](C(=O)O)CC3)cc2)C(=O)C(C)(C)C)(c2ccc(OC(F)(F)F)cc2)CCO1` (stereo partly drawn) [Example B5, Trans-4-(4-{[(2,2-dimethylpropanoyl) (2-{2,2-dimethyl-4-[4-(trifluoromethoxy)phenyl]tetrahydro-2H-pyran-4-yl}ethyl)amino]methyl}phenoxy)cyclohexanecarboxylic acid], the negative logarithm of the IC50 (pIC50) was 7.70 in test [1]; 8.00 in test [2]; 7.25 in test [3]; 7.77 in test [4]; 7.62 in test [5].

For `COc1ccc(C2(CCN(Cc3ccc(C(=O)c4ccc(CCC(=O)O)cc4)c(C)c3)C(=O)C(C)(C)C(F)(F)F)CCOC(C)(C)C2)cc1` (centres unmarked) [Example Q4, 3-[4-(4-{[{2-[4-(4-Methoxyphenyl)-2,2-dimethyltetrahydro-2H-pyran-4-yl]ethyl}(3,3,3-trifluoro-2,2-dimethylpropanoyl)amino]methyl}-2-methylbenzoyl)phenyl]propanoic acid], the pIC50 in test [1] was 7.46; in test [2], 8.07; in test [3], 6.72; in test [4], 7.72; in test [5], 7.36.

For `COc1ccc(C2(CCN(Cc3ccc(O[C@H]4CC[C@H](CC(=O)O)CC4)c(Cl)c3)C(=O)C(C)(C)C)CCOC(C)(C)C2)cc1` (stereo partly drawn) [Example C8, [Trans-4-(2-chloro-4-{[(2,2-dimethylpropanoyl) {2-[4-(4-methoxyphenyl)-2,2-dimethyltetrahydro-2H-pyran-4-yl]ethyl}amino]methyl}phenoxy)cyclohexyl]acetic acid], the negative logarithm of the IC50 (pIC50) is more than 7.80 in test [1]; 8.11 in test [2]; 7.15 in test [3]; 7.89 in test [4]; 7.59 in test [5].
